Measured values as given in patent publication US7078400B2, “20-HETE synthase inhibitor” (Taisho Pharmaceutical Co., Ltd., priority 1999, dated 2006).

How the values were obtained:
[1] = test system: 20-HETE synthase originated from rat kidney microsome; experiment: Inhibitory effect of 20-HETE synthase originated from rat kidney microsome; type: biochemical; settings: for Inhibition rate (1 μM): 20-HETE production without compound set to 100%
How it was run: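 Kidney microsomes from 6-week male spontaneously hypertensive rats were used with tritium-arachidonic acid and NADPH. 20-HETE was quantified by radio-HPLC on a C18 column.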

[2] = 1 μM of subject compound, rat kidney microsome
[3] = concentration at which 20-HETE production was inhibited to 50%, rat kidney microsome
[4] = concentration at which production of 20-HETE was inhibited to 50%

**Q.** Which melting point does the source give for `CCOCCCOc1ccc(N/C=N/O)cc1` [Comp. 371] here?
**A.** Its melting point is 93 to 94 °C.

**Q.** And the “Inhibition rate (1 μM)” value [1, 2]?
**A.** The value was 110.4.

**Q.** And the IC50 [1, 3]?
**A.** Its IC50 is 0.9 nM.

**Q.** With `CCCCOCCOc1ccc(N/C=N/O)cc1` [Comp. 373] as the molecule, how does the melting point read?
**A.** The melting point was 97 to 99 °C.

**Q.** What about the “Inhibition rate (1 μM)” value [1, 2] of the same molecule?
**A.** Its value is 115.3.

**Q.** And the IC50 [1, 3]?
**A.** The IC50 was 0.8 nM.

**Q.** With `COc1ccccc1COc1ccc(N/C=N/O)cc1` [Comp. 382] as the molecule, how does the melting point read?
**A.** Its melting point is 153 to 153.5 °C.

**Q.** And the “Inhibition rate (1 μM)” value [1, 2]?
**A.** Its value is 122.5.

**Q.** And the IC50 [1, 3]?
**A.** Its IC50 is 3.1 nM.

**Q.** With `O/N=C/Nc1ccc(OCc2cc(F)ccc2F)cc1` [Comp. 384] as the molecule, how does the melting point read?
**A.** The melting point was 167 to 167.5 °C.

**Q.** What about the “Inhibition rate (1 μM)” value [1, 2] of the same molecule?
**A.** The value was 117.3.

**Q.** And the IC50 [1, 3]?
**A.** Its IC50 is 2.8 nM.

**Q.** For `CSc1ccc(COc2ccc(N/C=N/O)cc2)cc1` [Comp. 387], which melting point is on record?
**A.** The melting point was 163 to 164 °C.

**Q.** And the “Inhibition rate (1 μM)” value [1, 2]?
**A.** The value was 97.8.

**Q.** What about the IC50 [1, 3] of the same molecule?
**A.** The IC50 was 0.9 nM.

**Q.** What does the source list for `COc1ccc(COc2ccc(N/C=N/O)cc2)cc1` [Comp. 389]?
**A.** melting point: 167 to 167.5 °C; Inhibition rate (1 μM) [1, 2]: 105.5; IC50 [1, 3]: 1.6 nM

**Q.** For `COc1cccc(COc2ccc(N/C=N/O)cc2)c1` [Comp. 390], which melting point is on record?
**A.** Its melting point is 152.5 to 153.5 °C.

**Q.** And the “Inhibition rate (1 μM)” value [1, 2]?
**A.** Its value is 112.8.

**Q.** And the IC50 [1, 3]?
**A.** The IC50 was 2.7 nM.

**Q.** With `Cc1cccc(COc2ccc(N/C=N/O)cc2)c1` [Comp. 391] as the molecule, how does the melting point read?
**A.** Its melting point is 161.5 to 162 °C.

**Q.** What about the “Inhibition rate (1 μM)” value [1, 2] of the same molecule?
**A.** Its value is 113.4.

**Q.** And the IC50 [1, 3]?
**A.** The IC50 was 2.4 nM.

**Q.** With `O/N=C/Nc1ccc(OCc2ccc(F)cc2)cc1` [Comp. 392] as the molecule, how does the melting point read?
**A.** Its melting point is 165.5 to 166 °C.

**Q.** And the “Inhibition rate (1 μM)” value [1, 2]?
**A.** Its value is 109.6.

**Q.** And the IC50 [1, 3]?
**A.** Its IC50 is 2.4 nM.

**Q.** With `N#Cc1cccc(COc2ccc(N/C=N/O)cc2)c1` [Comp. 393] as the molecule, how does the melting point read?
**A.** Its melting point is 143 to 146 °C.

**Q.** And the “Inhibition rate (1 μM)” value [1, 2]?
**A.** Its value is 124.3.

**Q.** And the IC50 [1, 3]?
**A.** The IC50 was 1.1 nM.

**Q.** For `COc1cccc(COc2ccc(N/C=N/O)cc2)c1OC` [Comp. 394], which melting point is on record?
**A.** The melting point was 144 to 145 °C.

**Q.** And the “Inhibition rate (1 μM)” value [1, 2]?
**A.** The value was 119.9.

**Q.** And the IC50 [1, 3]?
**A.** Its IC50 is 3.9 nM.

**Q.** Which melting point does the source give for `COc1ccc(COc2ccc(N/C=N/O)cc2)c(OC)c1` [Comp. 395] here?
**A.** The melting point was 178 to 178.5 °C.

**Q.** What about the “Inhibition rate (1 μM)” value [1, 2] of the same molecule?
**A.** The value was 111.6.

**Q.** And the IC50 [1, 3]?
**A.** The IC50 was 2.1 nM.

**Q.** With `CN(C)CCOc1ccc(N/C=N/O)cc1` [Comp. 399] as the molecule, how does the melting point read?
**A.** The melting point was 118 to 120 °C.

**Q.** And the “Inhibition rate (1 μM)” value ([1]; 1 μM of the subject compound)?
**A.** Its value is 102.3.

**Q.** And the IC50 [1, 4]?
**A.** The IC50 was 98 nM.

**Q.** With `CN(C)CCCOc1ccc(N/C=N/O)cc1` [Comp. 400] as the molecule, how does the melting point read?
**A.** Its melting point is 115 to 117 °C.

**Q.** And the “Inhibition rate (1 μM)” value ([1]; 1 μM of the subject compound)?
**A.** Its value is 116.9.

**Q.** What about the IC50 [1, 4] of the same molecule?
**A.** The IC50 was 48.7 nM.

**Q.** What does the source list for `CN(C)CCCCOc1ccc(N/C=N/O)cc1` [Comp. 401]?
**A.** melting point: 100 to 102 °C; Inhibition rate (1 μM) ([1]; 1 μM of the subject compound): 117.4; IC50 [1, 4]: 37.6 nM

**Q.** With `CN(C)CCCCCCOc1ccc(N/C=N/O)cc1` [Comp. 402] as the molecule, how does the melting point read?
**A.** Its melting point is 95 to 96 °C.

**Q.** What about the “Inhibition rate (1 μM)” value ([1]; 1 μM of the subject compound) of the same molecule?
**A.** The value was 118.8.

**Q.** What about the IC50 [1, 4] of the same molecule?
**A.** The IC50 was 18.7 nM.

**Q.** Which melting point does the source give for `CN(C)CC(C)(C)COc1ccc(N/C=N/O)cc1` [Comp. 403] here?
**A.** Its melting point is 101.5 to 102 °C.

**Q.** And the “Inhibition rate (1 μM)” value ([1]; 1 μM of the subject compound)?
**A.** Its value is 118.3.

**Q.** And the IC50 [1, 4]?
**A.** The IC50 was 28.5 nM.

**Q.** Which melting point does the source give for `CN(C)CCOCCOc1ccc(N/C=N/O)cc1` [Comp. 404] here?
**A.** The melting point was 57.5 to 59 °C.

**Q.** And the “Inhibition rate (1 μM)” value ([1]; 1 μM of the subject compound)?
**A.** The value was 114.9.

**Q.** What about the IC50 [1, 4] of the same molecule?
**A.** The IC50 was 116 nM.

**Q.** Which melting point does the source give for `O=C1CCCN1CCOc1ccc(N/C=N/O)cc1` [Comp. 407] here?
**A.** The melting point was 127.5 to 129.5 °C.

**Q.** What about the “Inhibition rate (1 μM)” value ([1]; 1 μM of the subject compound) of the same molecule?
**A.** Its value is 94.3.

**Q.** And the IC50 [1, 4]?
**A.** Its IC50 is 4.9 nM.

**Q.** With `O=C1CCCN1CCCOc1ccc(N/C=N/O)cc1` [Comp. 408] as the molecule, how does the melting point read?
**A.** The melting point was 177 to 177.5 °C.

**Q.** What about the “Inhibition rate (1 μM)” value ([1]; 1 μM of the subject compound) of the same molecule?
**A.** Its value is 103.0.

**Q.** What about the IC50 [1, 4] of the same molecule?
**A.** Its IC50 is 4.2 nM.

**Q.** With `O/N=C/Nc1ccc(OCC2CCO2)cc1` (stereo not drawn) [Comp. 409] as the molecule, how does the melting point read?
**A.** The melting point was 145 to 146 °C.

**Q.** What about the “Inhibition rate (1 μM)” value ([1]; 1 μM of the subject compound) of the same molecule?
**A.** Its value is 113.2.

**Q.** What about the IC50 [1, 4] of the same molecule?
**A.** Its IC50 is 6.7 nM.

**Q.** Which melting point does the source give for `O/N=C/Nc1ccc(OCC2COc3ccccc3O2)cc1` (stereo not drawn) [Comp. 410] here?
**A.** Its melting point is 153 to 155 °C.

**Q.** And the “Inhibition rate (1 μM)” value ([1]; 1 μM of the subject compound)?
**A.** Its value is 117.3.

**Q.** What about the IC50 [1, 4] of the same molecule?
**A.** Its IC50 is 1 nM.

**Q.** For `O/N=C/Nc1ccc(OCCn2cccc2)cc1` [Comp. 411], which melting point is on record?
**A.** Its melting point is 150.5 to 151.5 °C.

**Q.** What about the “Inhibition rate (1 μM)” value ([1]; 1 μM of the subject compound) of the same molecule?
**A.** Its value is 122.4.

**Q.** What about the IC50 [1, 4] of the same molecule?
**A.** The IC50 was 3.1 nM.

**Q.** With `O/N=C/Nc1ccc(OCCCn2cccc2)cc1` [Comp. 412] as the molecule, how does the melting point read?
**A.** The melting point was 130 to 130.5 °C.

**Q.** What about the “Inhibition rate (1 μM)” value ([1]; 1 μM of the subject compound) of the same molecule?
**A.** Its value is 119.4.

**Q.** What about the IC50 [1, 4] of the same molecule?
**A.** Its IC50 is 1.5 nM.

**Q.** What does the source list for `CSCCOc1ccc(N/C=N/O)cc1` [Comp. 413]?
**A.** melting point: 112 to 113 °C; Inhibition rate (1 μM) ([1]; 1 μM of the subject compound): 120.2; IC50 [1, 4]: 2.3 nM

**Q.** What does the source list for `CSCCCOc1ccc(N/C=N/O)cc1` [Comp. 414]?
**A.** melting point: 132 to 133.5 °C; Inhibition rate (1 μM) ([1]; 1 μM of the subject compound): 113.2; IC50 [1, 4]: 1 nM

**Q.** For `CN1CCCC(COc2ccc(N/C=N/O)cc2)C1` (stereo not drawn) [Comp. 415], which melting point is on record?
**A.** Its melting point is 114 to 117 °C.

**Q.** And the “Inhibition rate (1 μM)” value ([1]; 1 μM of the subject compound)?
**A.** The value was 103.7.

**Q.** What about the IC50 [1, 4] of the same molecule?
**A.** The IC50 was 17.6 nM.

**Q.** Which results are given for `CN1CCCC1CCOc1ccc(N/C=N/O)cc1` (stereo not drawn) [Comp. 416]?
**A.** melting point: 99.5 to 102.5 °C; Inhibition rate (1 μM) ([1]; 1 μM of the subject compound): 85.8; IC50 [1, 4]: 16.3 nM

**Q.** Which melting point does the source give for `CN1CCCCC1COc1ccc(N/C=N/O)cc1` (stereo not drawn) [Comp. 417] here?
**A.** Its melting point is 146.5 to 148 °C.

**Q.** And the “Inhibition rate (1 μM)” value ([1]; 1 μM of the subject compound)?
**A.** Its value is 102.8.

**Q.** And the IC50 [1, 4]?
**A.** The IC50 was 90 nM.

**Q.** With `O/N=C/Nc1ccc(OCC2CCCO2)cc1` (stereo not drawn) [Comp. 420] as the molecule, how does the melting point read?
**A.** Its melting point is 147 to 148.5 °C.

**Q.** What about the “Inhibition rate (1 μM)” value ([1]; 1 μM of the subject compound) of the same molecule?
**A.** The value was 118.6.

**Q.** What about the IC50 [1, 4] of the same molecule?
**A.** The IC50 was 8 nM.

**Q.** What does the source list for `O/N=C/Nc1ccc(OCC2CCCCO2)cc1` (stereo not drawn) [Comp. 421]?
**A.** melting point: 153 to 154.5 °C; Inhibition rate (1 μM) ([1]; 1 μM of the subject compound): 113.3; IC50 [1, 4]: 3.9 nM
